Experimental data reported in US12121503B2, “Antiviral treatments” (priority 2006, dated 2024).
“And” between values parts separate entries of the source, which are not always exact repeats. Equal entries are not always repeated. Marks after values point to notes of the source that are not given here.

How the values were obtained:
[1] = system: Influenza A/Duck/MN/152518 (H5N1); type: in vivo, BALB/c mice
influenza virus [2] = conditions: cited from earlier work
influenza virus [3] = conditions: cited from earlier work; remark: listed apart in the source
influenza infection = conditions: oral administration over a period of days; cited from earlier work
[4] = Plasma levels after i.v. administration in mice
[5] = Toxicity controls: uninfected mice treated in parallel; conditions: for Tox Controls Surv/Total: 21 days
[6] = Phase I clinical study in healthy human volunteers, plasma concentration after intravenous and intramuscular administration
[7] = intramuscular, healthy human volunteers

SMILES: CCC(CC)C(NC(C)=O)[C@@H]1[C@H](O)[C@@H](C(=O)O)C[C@H]1NC(=N)N (stereo partly drawn) [Peramivir, (1S,2S,3R,4R)-3-(1-Acetamido-2-ethylbutyl)-4-guanidino-2-hydroxycyclopentane-carboxylic acid]
- Infected, Treated Mice Surv/Total ([1]; 21 days): 10/10** and 5/10
- Effect on lung parameters ([1]; mouse, in vivo): moderately inhibitory
- Infected animals surviving the infection ([1]; mouse, in vivo): 100%
- Protection of mice (prevention of deaths, lessening of lung consolidation, inhibition of lung virus titers) ([1]; mouse, in vivo): significantly protective
- Activity against the influenza virus in vitro (influenza virus [2]): marked activity
- Activity against the influenza virus in experimentally infected mice (influenza virus [3]): marked activity
- Therapeutic effect on influenza infection in humans (influenza infection): suboptimal therapeutic effect
- Time at relatively high levels in the plasma [4]: at least 6 hours
- Tox Controls Surv/Total ([5]; 3 mg/kg i.v.): 3/3
- Tox Controls Surv/Total ([5]; 10 mg/kg i.v.): 3/3
- Tox Controls Surv/Total ([5]; 20 mg/kg i.v.): 3/3
- Survival and weight of toxicity controls ([5]; i.v., run in parallel): all survived and gained weight
- Tolerability in toxicity controls ([5]; i.v., run in parallel): well tolerated
- half-life ([6]; human, plasma, iv): > 12 h
- Kinetics of plasma concentrations [6, 7]: linear kinetics
- Plasma half life [6, 7]: unusually extended
- Kinetics of plasma concentrations ([6]; intravenous, healthy human volunteers): linear kinetics
